US8653132B2, “Phosphaplatins and their use in pharmaceutical compositions” (Ohio University, priority 2007, dated 2014)
Read-outs that look alike come from different tables or passages of the source.

Columns and labels:
[1] = pKa from 31P chemical shift as a function of pH; format: physicochemical
[2] = tested on: A2780/C30 cisplatin-resistant ovarian cell line; test: Clonogenic assay, cisplatin/carboplatin-resistant C30; format: cell-based, human; settings: 1 hour drug treatment, 1 week colony formation
Procedure: A cisplatin-resistant Ovarian cell line (C30) (Hamaguchi, et al., 1993), obtained from Dr. Thomas Hamilton (Fox Chase Cancer Center, Philadelphia, Pa.), was treated with the monomeric platinum complexes of the present invention (shown in FIG. 2). This cell line is also cross resistant to carboplatin. Cells were cultured on monolayer using RPMI 1640 supplemented with 10% fetal bovine serum, 2 mM glutamine, 0.25 units/mL insulin and penicillin/streptomycin in a 37 degrees C. incubator continuously gassed with 5% CO2. Cells were subcultured using 0.025% trypsin in HBSS to maintain cells in exponential growth.
IC50 values were determined using a clonogenic assay. Briefly, 500 C30 cells from a single cell suspension were plated onto 60 mm Petri plates 24 hours before drug treatment to permit cell attachment. On the day of drug treatment, the medium was decanted and replaced with the drug and these treated cells were placed back into the 37 degrees C. incubator for 1 hour. Triplicate plates were set up for each drug concentration. After the one hour drug treatment, the drug containing medium was decanted and replaced with fresh medium. These plates were returned to the 37 degrees C. incubator for 1 week for colony formation. Colonies were fixed and stained using 2% crystal violet in absolute methanol. Colonies containing more than 50 cells were scored. The number of scored colonies from the triplicate plates was averaged and this number was divided by the number of cells plated to obtain a value for the fraction of cells forming colonies. These values for fraction of cells forming colonies were then corrected for plating efficiency by dividing them by the number of cells forming colonies in plates that were not treated with drug.

[3] = tested on: UMSCC10b (Cisplatin-sensitive) cells; test: Cytotoxicity in head and neck cancer cells, cisplatin-sensitive; format: cell-based, human
Procedure: (§1) The UMSCC10b (Cisplatin-sensitive) and UMSCC10b/15s (Cisplatin-resistant) cell lines derived from human head and neck squamous cell cancer were lines were obtained from Dr. Stephen B. Howell of the University of California, Dan Diego. Cells were cultured in 1640 RPMI with 10% fetal bovine serum, 100 units/ml penicillin and 100 μg/m1 of streptomycin. Cells were seeded into 24-well plates with approximately 20,000 cells/500 μl of media in each well plate. Cells were exposed to dach-2 with variable concentrations ranging from 1.12 μM to maximum of 72 μM. Stock solutions of dach-2 complex were prepared and aliquots of these solutions were added to make those effective concentrations. Cells were then allowed to grow for 72 hours. Twelve different concentrations were used in this study. Each concentration had one control for a total of 12 controls.

[4] = tested on: UMSCC10b/15s (Cisplatin-resistant) cells; test: Cytotoxicity in head and neck cancer cells, cisplatin-resistant; format: cell-based, human
Procedure: as §1

A2780/C30 cells = test: Cellular accumulation of platinum by atomic absorption, A2780/C30; format: cell-based, human; settings: 1 hr exposure
Procedure: Platinum content was quantitatively estimated on a Graphite Furnace Atomic Absorption Spectrometer (Perkin Elmer AA-600) from calibration curves established by using cisplatin or pyrodach-2 in water. Cells (5×10^6) were seeded in T75 cm^2 flasks. After 24 h, these cells were then treated with the different concentrations (0, 10, 20, 30 and 50 μM) of cisplatin and pyrodach-2. After 1 hr exposure with the platinum complexes, the drug-containing medium was removed and the cells were washed with ice-cold phosphate-buffered saline (PBS). The cells were then trypsinized and centrifuged into a pellet. Cell pellets were digested in concentrated HNO3 and H2O2 prior to analysis, according to the method of McGahan. Data reported in Table 4 were collected from three independent experiments each was carried out in duplicate. For the cisplatin accumulation, data were obtained from triplicate runs from a single sample at a given concentration.

guanine base = test: Guanine base binding by proton NMR; settings: cisplatin after 48 hours, am-2 96 hours, dach-2 106 hours
Procedure: FIG. 12 is a comparison of guanine base binding (the predominant DNA binding site of cisplatin) among cisplatin (bottom), am-2 (middle), and dach-2 (top) by proton NMR spectroscopy. […] The bottom spectrum was recorded after 48 hours. The middle and top spectra were recorded after 96 and 106 hours, respectively.
(§2) Proton NMR spectroscopic experiments were conducted on a Bruker 500 MHz NMR instrument in 99% (atom) D2O with a water suppression pulse sequence. Samples contained cisplatin (2.0 mM) or pyrodach-2 (2.0 mM) and nucleotides (5′-dGMP, 5′-dAMP, dGpG (5.0 mM)), and, single- and double stranded DNA (calf thymus, 5.0 mM) at pH 7.0 maintained by phosphate and carbonate buffers (10-20 mM). Reactions of cisplatin (0.25 mM) and pyrodach-2 (0.25 mM) with a synthetic 25-mer: 5′-[…]-3′ (SEQ ID NO: 1) (0.25 mM) were also performed under identical conditions. Reactions were carried out up to 7 days, and ^1H and ^31P NMR spectra were recorded at regular time intervals. Usually, a pulse width of 5 μs with a 1.0 s repetition delay was used for the measurements. Typically, a sweepwidth of 10,000 Hz and 32 K data points were selected to collect the Free Induction Decays. A line broadening factor of 1 Hz was for applied Fourier transformation. The chemical shifts, with reference to H—O-D peak, are at 4.67 ppm.

[5] = tested on: calf-thymus DNA, oligonucleotide, dGpG, 5'-dGMP and 5'-dAMP; test: Platinum binding to DNA and nucleotides by NMR; settings: 1H NMR, up to seven days
Procedure: In the associated experiment, dach-2 was allowed to react with double-stranded calf-thymus DNA, a synthetic oligonucleotide (5′-[…]-3′; SEQ ID NO:1), a dinucleotide (dGpG), and nucleotide monophosphates (5′-dGMP and 5′-dAMP) at concentrations as much as 250-times higher than those of cellular doses. The extent of DNA binding was monitored by ^1H NMR spectroscopy. In parallel, similar reactions with cisplatin were conducted under identical conditions.
as §2, with “The chemical shifts, with reference to H—O-D peak, are at 4.67 ppm.” left out

fas = test: Apoptotic gene array, real-time PCR: fas; format: cell-based; settings: preliminary
Procedure: (§3) Preliminary gene expression experiments involving complexes of the present invention as compared to cisplatin (data not shown) were carried out with an apoptotic array containing 84 genes that includes the BCL2 superfamily, both pro- and anti-apoptotic, caspases, the BIR-family, TNF receptor […] factors, p53 and its congeners, and fas associated members by real-time PCR. A closer look at the two sets of gene expressions clearly indicates a number of differences in the expression patterns. […] Specifically, fas was over-expressed by 6-fold compared to the control, and TNFRS genes such as TNFRSF-10B was overexpressed by 2-3 folds over controls. These latter receptor factors belong to the fas superfamily.

BAX = test: Apoptotic gene array, real-time PCR: BAX; format: cell-based; settings: preliminary
Procedure: as §3

[6] = calculated from phosphorus-31 chemical shifts

In the case of `NC1CCCCC1N.O=P([O-])(O)OP(=O)([O-])O.[Pt+2]` [dach-2, (Trans-1,2-cyclohexanediamine)(dihydrogenpyrophosphato)platinum(II)], the pKa1 [1, 6] is reported as 2.6 ± 0.2, the pKa2 [1, 6] is reported as 4.4 ± 0.2 and the “pKa1 (value in parentheses)” value ([1]; second value printed in parentheses under pKa1, not explained) is reported as “(3.3 ± 0.1)”. For the same compound, the IC50 [2] was 48 ± 5 µM, the IC50 ([3]; 72 hours growth, estimated, read-out: IC50 for UMSCC10b (Cisplatin-sensitive)) was < 1 µM and the IC50 ([3]; FIG. 9 legend, read-out: IC50 cisplatin-sensitive head and neck cancer cells) was < 1 µM. For the same compound, the IC50 ([4]; 72 hours growth, read-out: IC50 for UMSCC10b/15s (Cisplatin-resistant)) was 5 µM, the IC50 ([4]; FIG. 9 legend, read-out: IC50 cisplatin-resistant head and neck cancer cells) was < 5 µM and the “Cellular accumulation of platinum” value (A2780/C30 cells; A2780/C30, 10 μM) was 0.10 ± 0.08 ng/10^6 cells. The “Cellular accumulation of platinum” value (A2780/C30 cells; A2780/C30, 20 μM) was 1.00 ± 0.02 ng/10^6 cells, the “Cellular accumulation of platinum” value (A2780/C30 cells; A2780/C30, 30 μM) was 1.00 ± 0.02 ng/10^6 cells and the “Cellular accumulation of platinum” value (A2780/C30 cells; A2780/C30, 50 μM) was 2.00 ± 0.10 ng/10^6 cells. The “guanine base binding (H8 signal)” value (guanine base) was “exhibits a signal for the free guanine base at 8.05 ppm”, the “adduct formation with nucleotides” value [5] was “no detectable NMR signals” and the “fas over-expression compared to the control” value (fas) was 6 fold. For the same compound, the BAX overexpression (BAX) was 2-3 folds.
